In patent US9175077B2, “Nucleic acids encoding biologically active polypeptides derived from a novel early stage pregnancy factor designated maternin (MA)” (NOBEL BIOSCIENCES LLC, priority 1999, dated 2015):
Where “and” joins values, the source holds several entries; their conditions need not be identical. Identical values can stand only once. Entries after “also recorded” stand apart in the source; their conditions may differ.

How the values were obtained:
[1] = tested on: human primitive hematopoietic stem cells; assay: Long term cultures (LTC-IC, stroma-free) of CD34+, CD38− cells from human BMMC; type: cell-based
Method: In the human system, a long-term culture-initiating assay (LTC-IC) can be used to detect cells that can generate myeloid clonogenic cells (CFC/colony forming cells) in long-term cultures for a minimum of 5 weeks. Bone marrow stromal was produced by culturing 107 fresh BM-MNC in a T25 flash for at least 2 weeks in 5 mL stromal medium; 12.5% horse [HS] and 12.5% fetal calf serum [FCS]; both from hyclone [Logan, Utah], Iscove's modified Dulbecco's medium [IMDM, GIBCO-BRL], 2-mercaptoethanol [Sigma, st. Louis, Mo.], 10^−6 mol/L hydrocortisone [Sigma] and penicillin/streptomycine.
One or 2 days before co-cultures, bone marrow stroma was irradiated with 15Gy and plated at 7×10^3/cm^2 in 24-well plates to form pre-established stromal layers for the long-term cultures. Limiting dilution was 1 to 1000 CD34+ bone marrow/cord blood cells and equivalent aliquots, i.e., limiting dilutions of the cells grown in long-term cultures stroma-free cultures after 2 to 20 weeks were seeded on top of the irradiated bone marrow stroma in culture medium containing IMDM, 12.5% HS, 12.5% FCS, 2-mercptoethanol, and 10^−6 mon-hydrocortisone for 5 weeks LTC-IC assay period. Non-adherent cells were removed from the cultures, combined with the corresponding trypsinized adherent cells, washed and assayed for colony forming units (CFU-Cs) in methylcellulose medium containing 1.3% methylcellulose (Fluka Chemilka Biochemika, buck\hs, Switzerland), 30% FCS, EPO (3 U/ml), IL-3 (20 ng/ml), G-CSF (20 ng/ml), GM-CSF (20 ng/ml) and KL (c-kit, 50 ng/ml). These cultures were incubated at 37° C. and colonies were scored 2 to 3 weeks later. LTC-IC enumeration was based on the number of CFU-C scored in the limiting assays [LDA] and another technique.
Stroma-free long-term cultures were performed as follows. 2 to 10×10^3 CD34+/CD34^−CD38^− from bone marrow/CB/PBMC cells were cultured in quadrutriplicate flat bottomed 24 well plates in 1 ml to of IMDM supplemented with 10% FCS and the following cytokines: IL-3 (10 ng/ml), IL-6 (10 ng/ml), KL [c-kit 50 ng/ml, FL (50 ng/ml) and TPO (10 U/ml), which added, alone or in combination of two or more factors, to each series of microwells twice a week. The wells were grown at 37° C. and share a number of features with in vivo murine long-term repopulating cells. These include assay for cobblestone areas colony forming cells (CAFC), high proliferative potentials colony-forming cells (HPP-CFC), CFU-GEMM, CFU-B1 (blast colony forming units).

[2] = Lethal dose taxol in Sprague-Dawley rats; type: in vivo
Method: Sprague-Dawley rats were given taxol in large lethal doses, 4.5 mg in one I.P. inoculation. […] Bone marrow suppression can also be a side effect of the clinical use of taxol.^179 As in the radiation experiments, either MA, pMA, MAS1, or various polypeptide controls were given subcutaneously only in two doses 24 and 48 hrs before taxol treatment or were given 3×/week for 4 weeks. […]

[3] = tested on: carcinoma of the breast HTB124; assay: Confocal microscopy apoptosis; type: cell-based, human; conditions: 200 ng/ml; 24 hrs
Method: (§1) More extensive studies of the effects of MA and with truncated synthetic forms of MA (MAS) on a wide range of other human tumor cells were carried out using three-dimensional confocal microscopy. Cells were cultured and then seeded onto gelatinized glass chamber slides and incubated 24 hrs with the various test materials. The slides were then fixed with formalin and treated serially with Triton X-100 (0.01%) for 10 min at 25°, 0.4 ug/ml fluorescein isothiocyanate (FITC)-labeled Phalloidin (Sigma Chem. Co.) at room temperature for 30 min to bind actin, washed with PBS and the DNA stained with Propidium iodide (PI) (0.5 ug·ml) (Sigma Chemical Co.), for 15 min. The stained slides were washed and mounted on slow fade (Molecular Probes, Inc., Eugene, Oreg.) and examined through a dual emission filter XF53 (Omega, Inc., Brattlesboro, Va.) by fluorescent microscopy. In some experiments only DNA staining was performed. In these instances Triton X-100 was not used. The slides were stained with PI and examined for cell morphology and chromatin degradation under 3D confocal microscopy.

[4] = tested on: Ewing's sarcoma; assay: Confocal microscopy apoptosis; type: cell-based, human; conditions: 200 ng/ml; 24 hrs
Method: as §1

[5] = tested on: KS Y-1 cells; assay: Confocal microscopy apoptosis; type: cell-based, human; conditions: 200 ng/ml; 24 hrs
Method: as §1

[6] = tested on: prostate carcinoma cell line PC3; assay: Confocal microscopy apoptosis; type: cell-based, human; conditions: 200 ng/ml; 24 hrs
Method: as §1

[7] = tested on: carcinoma of the pancreas CRL 1682; assay: Confocal microscopy apoptosis; type: cell-based, human; conditions: 200 ng/ml; 24 hrs
Method: as §1

[8] = tested on: carcinoma of the colon; assay: Confocal microscopy apoptosis; type: cell-based, human; conditions: 200 ng/ml; 24 hrs
Method: as §1

[9] = tested on: normal human cells; assay: Effects on normal cells in vitro (confocal microscopy, trypan blue, MTT, 3H-thymidine); type: cell-based
Method: as §1
Untreated cells (first line) show normal morphology. The confocal microscopy results also verified the specificity of MA in killing tumor cells.
To be certain that this specificity for tumor cells was not simply the consequences of a difference between cycling and non-cycling cells, the following cell-types were also used: proliferating human normal fibroblasts, endothelial cells (HUVEC), and PHA-stimulated lymphocytes. […] In fact, MA actually promoted growth of some of these cells.
These cells included human, primate, and rodent bone marrow, PBMCs, and human CD4+ T-cells, CD8+ T-cells, CD34+ cells, and macrophages enriched from normal PBMCs, as well as normal human endothelial cells and fibroblasts. Cytotoxicity was assessed by 3H-thymidine incorporation, trypan blue staining, cell numbers, and morphological examination by light and confocal microscopy. Hematopoiesis was not only unimpaired it was promoted. […] These studies were chiefly performed with rats and mice, but also included rhesus macaques treated with 0.2 mg/kg for several months. Like the in vitro results, hematopoiesis was not impaired but instead enhanced.

[10] = tested on: spontaneous fibrosarcomas; assay: Spontaneous fibrosarcomas in FVB/N mice; type: in vivo; conditions: treatment for 2 weeks
Source text: As shown, MA killed a wide variety of human tumor cells in vitro and in vivo killed xenotransplanted human tumors in immune deficient mice. We wanted to be certain that the in vivo results would not be limited to immune deficient mice. […] Therefore, we tested the effects of MA on: • spontaneous fibrosarcomas which developed in three older FVB/N mice; and • spontaneous breast carcinomas which developed in three older Sprague-Dawley rats.
The tumors were recognized and treated after different stages of development. Samples of the tumor cells were grown in short-term culture and when treated with MA underwent rapid apoptosis.

[11] = LTC stroma free after 3 mos, n = 3

Sequence: VVCNYRDVRFESIRLPGCPRGVNPVVSYAVALSCQ [MA]
- BFU-e [1, 11]: 161 ± 8
- CFU-GM [1, 11]: 198 ± 11
- CFU-Mixed [1, 11]: 13 ± 3
- T-CFC [1, 11]: 199 ± 10
- CFU-GM: % of CD14 ([1]; culture 3): 27%
- CFU-GM: % of CD68 ([1]; culture 3): 22%
- CD34+ cells ([1]; culture 3 (LTC stroma free treated with MA)): 77.71%
- T colonies Rx MA: CD3+/CD4+ ([1]; for 1, 2, and 3 (respectively)): 38% and 28% and 46%
- T colonies Rx MA: CD3+/CD8+ ([1]; for 1, 2, and 3 (respectively)): 32% and 29% and 49%
- survival of pretreated animals ([2]; low dose, two doses 24 and 48 hrs before taxol): Sixty-percent
- survival maintained to day 80 ([2]; therapy maintained 28 days, high dose (1000 ng)): ~80%
- survival maintained to day 80 ([2]; therapy maintained 28 days, low dose (100 ng)): about 60%
- survival on day 5 ([2]; therapy maintained 28 days, low or high dose): 100%
- induction of apoptosis [3]: induced apoptosis
- induction of apoptosis [4]: induced apoptosis
- induction of apoptosis [5]: induced apoptosis
- induction of apoptosis [6]: induced apoptosis
- induction of apoptosis [7]: induced apoptosis
- induction of apoptosis [8]: induced apoptosis
- inhibition of growth or apoptosis of proliferating normal fibroblasts, HUVEC, PHA-stimulated lymphocytes [9]: no inhibition of growth or evidence of apoptosis
- effect on morphology of primary human fibroblasts, cord blood CD34+ cells, CD4+ T cells, macrophages ([9]; 2000 ng/ml): no effect
- cytopathogenicity / toxic side effects on normal cells in vitro ([9]; concentration ranges and time periods reported): no toxic side effects; also recorded: no cytopathogenicity
- cytotoxicity on normal cells at higher concentrations ([9]; up to 10× the effective concentrations): no evident cytotoxic effects; also recorded: no evident cytotoxicity
- tumor outcome [10]: complete abolishment of the tumor in two of three animals; also recorded: Partial regression was observed in one animal
